Data taken from PMC12022909, “A Multicomponent Reaction-Based Platform Opens New Avenues in Aryl Hydrocarbon Receptor Modulation” (ACS Central Science, 2025).
Read-outs that look alike come from different tables or passages of the source.

Key:
[1] = biological target: T1, aryl hydrocarbon receptor (AhR) (Homo sapiens, UniProt P35869); assay: AhR/XRE-dependent luciferase reporter gene assay in XRE-HepG2 cells; format: cell-based; conditions: for EC50: 8 h; for AhR-dependent reporter gene activity on co-treatment with BaP: preliminary data
T1 construct: AhR-dependent reporter gene activity was determined in human HepG2 cells stably transfected with an XRE; endogenous in cells; host or cells: XRE-HepG2 (human HepG2 hepatoma cells stably carrying an XRE-luciferase plasmid)
T1 sequence (P35869 11-848): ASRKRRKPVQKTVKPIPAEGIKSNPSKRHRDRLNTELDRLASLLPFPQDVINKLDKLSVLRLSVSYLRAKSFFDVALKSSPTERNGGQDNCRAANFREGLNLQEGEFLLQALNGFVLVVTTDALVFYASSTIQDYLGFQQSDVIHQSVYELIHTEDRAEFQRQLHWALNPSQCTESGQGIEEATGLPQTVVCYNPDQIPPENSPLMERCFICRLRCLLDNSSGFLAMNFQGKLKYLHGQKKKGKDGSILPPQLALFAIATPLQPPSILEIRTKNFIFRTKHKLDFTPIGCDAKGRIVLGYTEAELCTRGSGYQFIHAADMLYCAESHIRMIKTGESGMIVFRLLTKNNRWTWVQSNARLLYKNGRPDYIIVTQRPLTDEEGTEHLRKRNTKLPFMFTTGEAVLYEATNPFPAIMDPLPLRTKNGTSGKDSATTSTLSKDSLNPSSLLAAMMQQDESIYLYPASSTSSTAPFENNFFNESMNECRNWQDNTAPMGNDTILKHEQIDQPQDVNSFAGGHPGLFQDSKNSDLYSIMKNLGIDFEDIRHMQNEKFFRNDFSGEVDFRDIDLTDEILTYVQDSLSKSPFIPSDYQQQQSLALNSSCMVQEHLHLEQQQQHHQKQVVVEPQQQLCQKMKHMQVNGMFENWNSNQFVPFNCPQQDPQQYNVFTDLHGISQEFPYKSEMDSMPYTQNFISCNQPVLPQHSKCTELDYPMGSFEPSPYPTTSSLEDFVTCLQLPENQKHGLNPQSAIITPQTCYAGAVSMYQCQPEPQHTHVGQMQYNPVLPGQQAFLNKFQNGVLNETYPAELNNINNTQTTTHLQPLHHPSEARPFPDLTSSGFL
Description: (f) AhR/XRE-dependent reporter gene activity results (EC50/μM).
Data are shown as mean ± SEM.
The human XRE -HepG2 reporter cell -line was a kind gift of K. Gradin and L. Poellinger (Karolinska Institute, Stockholm,
antibiotic/antimycotic solution, and 0.8 mg/ml G418. All cells were cultivated at 37 °C in a humidified atmosphere containing 5% CO 2.
AhR-dependent reporter gene activity was determined in human HepG2 cells stably transfected with an XRE -harboring luciferase plasmid (XRE-HepG2 cells). […] Luciferase activity was normalized to protein content.

HaCaT cells = assay: UVA phototoxicity, caspase 3 activity in HaCaT cells; format: cell-based, human; conditions: HaCaT, 1 h, UVA 5 J/cm2
Description: Irradiation with UVA and caspase 3 activity measurement […]
culture media was exchanged with PBS and the cells were sham or UVA (5 J/cm2) irradiated using the BS-02 irradiation chamber (Opsytec Dr. Gröbel, Ettlingen Germany). Media was added to the cells and after 4 h incubation, caspase 3 activity was measured as described previously.[33] Protein quantification was done with the Bio-Rad DC protein assay kit (Bio-Rad Laboratories, Hercules, CA) according to the manufacturer protocol.
We compared the phototoxic potential of five of our test compounds (8, 10, 5b, 5h, 4b) as well as the FDA-approved AhR activator […]
induced caspase activity at a concentration of 100 nM (Figure S36A). At a 10-fold higher concentration (1 µM) two of the test compounds […]
Figure S36. […] For statistical analysis a two-way ANOVA (Tukey post-hoc) was performed and data are shown as mean ± SEM. (*, p ≤ 0.05). […]

[2] = Solubility in the growing media during cytotoxicity testing; format: physicochemical; conditions: concentration of 100 µM
Description: A phosphatidylserine exposure was used to determine cell viability. Cells were washed with PBS, pelleted, and then incubated with annexin binding buffer containing Annexin V-APC (Life Technologies) for 15 min in the dark. Then, samples were analyzed by flow cytometry using FACSCanto II and FACSDiva (BD Biosciences, Franklin Lakes, NJ, USA). Data represents the percentage of non - apoptotic cells (Ann -APC-).
The cytotoxicity of a selection of the synthesized compounds was assessed after 24 hours of treatment in two human cell lines, Jurkat and HEK293T, coming from either tumoral T-cell lymphocytes or non-tumoral embryonic kidney fibroblasts, respectively. […]
the pro-apoptotic activity was not significant below 10 µM for most compounds in both cell lines, except for 5i, 5k and 5l in both cell lines, as well as 9a in Jurkat and 5e HEK293T cells (Figure S35A-B).
Moreover, the cytotoxicity of compounds 4d, 5b, 5h, 8, 10, and 12d at a higher concentration (100 µM) was assessed in both cell lines, Jurkat and HEK293T. The cytotoxicity of compounds 5b, 5h, and 12d could not be properly tested as the compounds were not soluble […]
effects observed for compound 4d in Jurkat cells and compound 8 in HEK293T cells (Figure S35C).
Figure S35. A) Jurkat and B) HEK293T cells were treated with 1 and 10 µM doses of the corresponding compound for 24 hours. Indicated doses of fluorizoline were used as a positive control of cell death. C) Jurkat and HEK293T cells were treated with 100 µM of the corresponding compound for 24 hours. Viability was measured by flow cytometry, and it is expressed as the mean ± SEM (n = 3) of the percentage of non -apoptotic cells (Ann-APC-). * p < 0.05, ** p < 0.01 *** p < […]
(1 picture or pasted object on this page, not shown here)

[3] = XRE-HepG2 cells, unit as in the supplements, read-out: AhR/XRE-dependent luciferase activity EC50
[4] = XRE-HepG2 hepatoma cells, luciferase activity, read-out: AhR/XRE-dependent reporter gene activity (EC50)

| EC50 [1, 3] | Structure (SMILES) | other results |
| --- | --- | --- |
| 0.1 µM | CS(=O)(=O)Nc1ccc(-c2ccc3[nH]cc(-c4c5[nH]c6ccccc6c5cc5[nH]c6ccccc6c45)c3c2)cc1 [9a] | – |
| > 10 µM | Cc1ccc(C#Cc2ccc3[nH]cc(-c4c5[nH]c6ccccc6c5cc5[nH]c6ccccc6c45)c3c2)cc1 [9b] | AhR-dependent reporter gene activity on co-treatment with BaP [1]: synergistic effects |
| 6.06 µM | O=C(NCCCCCCCCCCNC(=O)c1ccc2c(-c3c4[nH]c5ccccc5c4cc4[nH]c5ccccc5c34)c[nH]c2c1)c1ccc2c(-c3c4[nH]c5ccccc5c4cc4[nH]c5ccccc5c34)c[nH]c2c1 [12c] | – |
| > 10 µM | O=C(NCCCOCCOCCOCCCNC(=O)c1ccc2c(-c3c4[nH]c5ccccc5c4cc4[nH]c5ccccc5c34)c[nH]c2c1)c1ccc2c(-c3c4[nH]c5ccccc5c4cc4[nH]c5ccccc5c34)c[nH]c2c1 [12d] | solubility in the growing media [2]: not soluble |

Second part, the molecule before the results:

| Structure (SMILES) | EC50 [1, 3] | other results |
| --- | --- | --- |
| CC1(C)CC(=O)C(c2c3[nH]c4ccccc4c3cc3[nH]c4ccccc4c23)=C(O)C1 [4a] | 2.25 µM | – |
| O=C1OCC(O)=C1c1c2[nH]c3ccccc3c2cc2[nH]c3ccccc3c12 [4b] | > 10 µM | UVA radiation-induced caspase activity (phototoxicity) (HaCaT cells; 100 nM): neither tapinarof nor our 6-ICZ compounds enhanced; UVA radiation-induced caspase activity (phototoxicity) (HaCaT cells; 1 µM): did not show any signs of phototoxicity; AhR-dependent reporter gene activity on co-treatment with BaP [1]: synergistic effects |
| O=c1oc2ccccc2c(O)c1-c1c2[nH]c3ccccc3c2cc2[nH]c3ccccc3c12 [4c] | 4.51 µM | – |
| Brc1ccc2[nH]cc(-c3c4[nH]c5ccccc5c4cc4[nH]c5ccccc5c34)c2c1 [5b] | 0.94 µM | UVA radiation-induced caspase activity (phototoxicity) (HaCaT cells; 100 nM): neither tapinarof nor our 6-ICZ compounds enhanced; UVA radiation-induced caspase activity (phototoxicity) (HaCaT cells; 1 µM): exhibited similar effects to FICZ; solubility in the growing media [2]: not soluble |
| c1ccc2c(-c3c4[nH]c5ccccc5c4cc4[nH]c5ccccc5c34)c[nH]c2c1 [5c] | – | EC50 [1, 4]: 0.36 µM |
| c1ccc(-c2[nH]c3ccccc3c2-c2c3[nH]c4ccccc4c3cc3[nH]c4ccccc4c23)cc1 [5f] | 1.17 µM | – |
| OCc1[nH]c2ccccc2c1-c1c2[nH]c3ccccc3c2cc2[nH]c3ccccc3c12 [5g] | 1.82 µM | – |
| Cc1cccc2[nH]cc(-c3c4[nH]c5ccccc5c4cc4[nH]c5ccccc5c34)c12 [5h] | 0.57 µM | UVA radiation-induced caspase activity (phototoxicity) (HaCaT cells; 100 nM): neither tapinarof nor our 6-ICZ compounds enhanced; solubility in the growing media [2]: not soluble |
| Cc1cccc2c(-c3c4[nH]c5ccccc5c4cc4[nH]c5ccccc5c34)c[nH]c12 [5i] | 0.45 µM | – |
| Cc1[nH]c2ccccc2c1-c1c2c3ccccc3n(C)c2cc2c3ccccc3n(C)c12 [5j] | 1.2 µM | reduction of activity compared to N,N′-H analog 5e ([1]; from reporter gene EC50 values): 2.3 fold |
| COc1ccc2[nH]c3c(-c4c(C)[nH]c5ccccc45)c4c(cc3c2c1)[nH]c1ccc(OC)cc14 [5l] | 0.63 µM | – |
| O=C(O)c1ccc2c(-c3c4[nH]c5ccccc5c4cc4[nH]c5ccccc5c34)c[nH]c2c1 [5m] | > 10 µM | – |
| CCCCCNC(=O)c1ccc2c(-c3c4[nH]c5ccccc5c4cc4[nH]c5ccccc5c34)c[nH]c2c1 [12a] | – | EC50 [1, 4]: 0.4 µM |
| Clc1cc2c(cc1Cl)Oc1cc(Cl)c(Cl)cc1O2 [TCDD, 2,3,7,8-tetrachlorodibenzodioxin, reference compound] | 0.003 µM | – |
| CC(C)c1c(O)cc(/C=C/c2ccccc2)cc1O [Tapinarof, tapinarof, reference compound] | – | UVA radiation-induced caspase activity (phototoxicity) (HaCaT cells; 100 nM): neither tapinarof nor our 6-ICZ compounds enhanced; UVA radiation-induced caspase activity (phototoxicity) (HaCaT cells; 1 µM): did not show any signs of phototoxicity |
